Source: patent publication US20050175550A1, “Compositions for oral use” (priority 2000, published 2005)

How the values were obtained:
[1] = test system: Fusobacterium nucleatum ATCC10953; assay: Antibacterial test, propagation by turbidity in broth (Example 1); type: cell-based; details: medium containing 0.1 mM or 1.0 mM trifluoromethionine, FIG. 4
Experimental: (§1) 3 ml of GAM broth (Nissui Medical) containing 5 μg/ml of hemin and 1 μg/ml of menadione was separately incubated with one platinum loop each of subcultures of strains Porphyromonas gingivalis W83, ATCC33277 and M1217, and strain Fusobacterium nucleatum ATCC10953, followed by incubation at 37° C. under anaerobic conditions (10% CO2, 10% H2, 80% N2) overnight. The same fresh medium as above was inoculated with the resulting culture in such an amount that an absorbance at 550 nm of the inoculated medium could be about 0.15, followed by incubation under the same condition as above. Furthermore, the above-mentioned strains were incubated in the above-mentioned medium further containing 0.1 mM or 1.0 mM trifluoromethionine. Absorbance at 550 nm of the individual cultures was measured with time to evaluate propagation of bacteria through the turbidity of the medium. Results are shown in FIG. 1 to 4 (A to D), where the results of using the trifluoromethionine-free medium are shown by □ curve, and those of using media containing 0.1 mM and 1.0 mM trifluoromethionine, respectively, are shown by ▪ and ● curves.

[2] = test system: Porphyromonas gingivalis W83, ATCC33277 and M1217; assay: as above; type: cell-based; details: medium containing 0.1 mM or 1.0 mM trifluoromethionine, FIGS. 1-3
Experimental: as §1

N[C@@H](CCSC(F)(F)F)C(=O)O [TFM, Trifluoromethionine]
antibacterial effect (propagation of bacteria, absorbance at 550 nm) [1]: remarkable antibacterial effects | antibacterial effect (propagation of bacteria, absorbance at 550 nm) [2]: remarkable antibacterial effects
